Molecules are shown by their SMILES.

For one data set, the system named is PC cells. Put plainly: Cell cycle and apoptosis of PC cells. It counts as cell-based. From the text: (§1) FIG. 7A through 7F. (R)-9bMS overcome enzalutamide-resistance of CRPCs. […] Data represent mean±s.e.m. (n=3) from one of three independent experiments. […] Data represent mean±s.e.m. (n=3) from one of three independent experiments. […] Data represent mean±standard error of the mean (s.e.m.) (n=3) from one of three independent experiments.*p<0.05. […] Cell cycle analysis of prostate cell lines treated with (R)-9bMS (24 hr).
(§2) To investigate the anti-tumor activity of ACK1 inhibitor, we first analyzed the ability (R)-9bMS to suppress proliferation of PC cell lines.

For a further data set, the system named is AR-V7. Put plainly: AR-V7 mRNA (qRT-PCR) and variant protein (immunoblot) in PC cells. It counts as cell-based. To be noted: VCaP 3.5 μM, 16 hr; VCaP and LAPC4 immunoblot. From the text: FIG. 1A through 1F. Inhibition of ACK1 kinase activity by (R)-9bMS (DZ1-067 mesylate salt) suppresses AR and AR-V7 expression. […] Data represent mean±s.e.m. (n=3) from one of three independent experiments. *p<0.05. FIG. 1B and FIG. 1C show immunoblot analysis of androgen-deprived VCaP and LAPC4 cells treated with (R)-9bMS. […] FIG. 1E and FIG. 1F show qRT-PCR analysis of AR and PSA in PC3 cells transfected with caACK or kdACK constructs. Data represent mean±s.e.m. (n=3) from one of three independent experiments. **p<0.01.
We assessed AR-V7 mRNA levels upon treatment with (R)-9bMS (DZ1-067 mesylate salt).

In another data set the test system is LAPC4. Description: Cell viability/proliferation of PC cell lines, LAPC4. It counts as cell-based. Conditions: LAPC4, 96 hr; read-out: IC50, suppression of proliferation.
Excerpt: as §1, §2

A further data set deals with C4-2B xenograft tumors. Put plainly: C4-2B CRPC xenograft in castrated SCID mice. Type of data set: in vivo. On the procedure:
FIG. 8A through 8F. (R)-9bMS mitigates CRPC tumor growth. […] Once formed palpable tumors, mice were injected with vehicle (10% DMSO in PBS) or (R)-9bMS (50 mg/kg of body) for 6 days a week for five weeks (n=9 mice for each treatment). Tumor volumes were measured. Data represent mean±s.e.m. […] Data represent mean±standard error of the mean (s.e.m.) (n=3) from one of three independent experiments. **p<0.01.
To investigate the effect of (R)-9bMS on CRPC xenograft tumor growth, C4-2B cells were implanted in castrated SCID mice.

The subject of a further data set is VCaP. Put plainly: Cell viability/proliferation of PC cell lines, VCaP. Type of data set: cell-based. Conditions: 96 hr, read-out: IC50, suppression of proliferation.
Excerpt: as §1, §2

In data set [1] the test system is LNCaP-caAck xenograft tumors. Description: LNCaP-caAck xenograft in castrated SCID mice. It counts as in vivo. To be noted: 50 mg/kg, 6 days a week for four weeks. The method, then: FIG. 9. ACK1 inhibitor (R)-9bMS suppresses xenograft tumor growth in castrated mice. Male SCID mice were castrated and injected with LNCaP-caAck cells. Once mice formed palpable tumors, mice were injected with vehicle (10% DMSO in PBS) or (R)-9bMS (50 mg/kg of body) for 6 days a week for four weeks (n=7 mice for each treatment). Tumor volumes were measured.

A further data set concerns LNCaP. Description: Cell viability/proliferation of PC cell lines, LNCaP. To be noted: 96 hr, read-out: IC50, suppression of proliferation. It counts as cell-based.
Excerpt: as §1, §2

For a further data set, the system named is C4-2B. Put plainly: Cell viability/proliferation of PC cell lines, C4-2B. It counts as cell-based. Conditions: 96 hr, read-out: IC50, suppression of proliferation.
Excerpt: as §1, §2

Data set [2] relates to pY88-H4 epigenetic marks upstream of AR gene. Put plainly: ChIP-qPCR at AREM1-3 sites in C4-2B cells. Type of data set: cell-based. From the text: FIG. 5A through 5J. AR transcription is regulated by epigenetic modification of histone H4 at tyrosine 88 is sensitized byc(R)-9bMS. FIG. 5A through 5D show ChIP with pY88-H4 antibodies, followed by qPCR using primers corresponding to AREM1-3 and control (gene desert) sites of C4-2B cells treated with (R)-9bMS. Data represent mean±s.e.m. (n=3) from one of three independent experiments. **p<0.01. […] Data represent mean±s.e.m. (n=3) from one of three independent experiments. *p<0.05, **p<0.01. FIGS. 5F and 5G show ChIP with pY88-H4 antibodies, followed by qPCR using primers corresponding to AREM2 and AREM1 site of C4-2B cells transfected with ACK1, AR and control siRNA. Data represent mean±s.e.m. (n=3) from one of three independent experiments. *p<0.05, **p<0.01. […] Data represent mean±s.e.m. (n=3) from one of three independent experiments. *p<0.05. FIGS. 5I and 5J show qRT-PCR analysis of AR and PSA in LAPC4 cells transfected with FLAG-tagged H4 or Y88F mutant H4 expressing constructs. Data represent mean±s.e.m. (n=3) from one of three independent experiments.*p<0.05, **p<0.01.
FIG. 6A through 6F. Recruitment of the MLL2/WDR5 complex and deposition of H3K4me3 epigenetic marks upstream of the AR gen can be erased by (R)-9bMS. […]
On the technique in general: Real-time PCR tracks product formation cycle by cycle.

Data set [3] concerns enzalutamide-resistant C4-2B cell line. Description: Cell viability and AR expression, enzalutamide-resistant C4-2B cells. It counts as cell-based. From the text: FIG. 7A through 7F. […] Data represent mean±s.e.m. (n=3) from one of three independent experiments. […] Data represent mean±s.e.m. (n=3) from one of three independent experiments. […] Data represent mean±standard error of the mean (s.e.m.) (n=3) from one of three independent experiments.*p<0.05. […] Cell cycle analysis of prostate cell lines treated with (R)-9bMS (24 hr).

For data set [4], the system named is histone H4 Y88-phosphorylation. Description: Immunoblot of H4 Y88-phosphorylation in ligand-treated PC cells. It counts as cell-based. To be noted: serum and androgen starved PC cells, ligand activated; 5 μM (DHT 10 nM). The method, then:
FIG. 2A through 2C. ACK1 inhibitor (R)-9bMS suppresses epigenetic modification of histone H4 at tyrosine 88.
To assess endogenous H4-phosphorylation, serum and androgen starved PC cells were treated with ligands to activate ACK1. It led to robust H4 Y88-phosphorylation, suppressed upon (R)-9bMS treatment (FIG. 2A). […] Moreover, H4 Y88-phosphorylation was also detected in human CRPCs using mass spectrometry, which was validated by immunoblotting (FIG. 3A-3C).
Background: Immunoblotting shows a protein as a band on a membrane.

Data set [5] concerns castration and radioresistant prostate xenograft tumor. Conditions: in vivo; cited from earlier work.
Setting [6] is: 50 mg/kg, 6 days a week for five weeks.

For the molecule `CN1CCN(c2ccc(Nc3ncc(Cl)c(NC[C@H]4CCCO4)n3)cc2)CC1` [(R)-9bMS], in the data set with PC cells (24 hr), the Cell cycle entry was “arrest PC cells in G2 phase”. Besides, the Apoptosis result in the data set with PC cells (C4-2B cells) is listed as “inducing apoptosis”. Moreover, the “AR-V7 mRNA and variant protein levels” value in the data set on AR-V7 is recorded as “significantly reduced”. Besides, the IC50 with LAPC4 came to 750 nM; in the data set on VCaP, 450 nM; in the data set with LNCaP, 1800 nM; with C4-2B, 400 nM. Further, the “Organ histology (H&E)” value in the data set on C4-2B xenograft tumors (50 mg/kg) is “histologically normal”. Moreover, the body weights result with C4-2B xenograft tumors (50 mg/kg) is reported as “no statistical difference”. For the same molecule, the CRPC tumor growth entry in the data set with C4-2B xenograft tumors (setting [6]) is recorded as “significant decrease”. Further, the tumor weight result with C4-2B xenograft tumors (setting [6]) is “significant decrease”. Moreover, the “AR, PSA & TMPRSS2 mRNAs levels in tumors” value with C4-2B xenograft tumors (qRT-PCR of xenograft tumors) was “significant reduction”. In data set [1], the Xenograft tumor growth result is on record as “displayed sensitivity”. Also, the “pY88-H4 marks at AREM1-3 sites” value in [2] (ChIP real time PCR) was “erased”. For the same molecule, in data set [2] (absence of androgen), the “WDR5, MLL2, H3K4me3 methyl marks and RNA Pol II at AREM1-3 sites” value is “significantly reduced”. The “Sensitivity of enzalutamide-resistant cells” value in data set [3] (enzalutamide-resistant C4-2B cells, 96 hr) is “retained sensitivity”. Moreover, the “AR expression in enzalutamide-resistant cells” value in [3] (immunoblot) was “able to suppress AR expression”. For the same molecule, the “H4 Y88-phosphorylation” value in data set [4] is “suppressed”.

On to `c1ccc(-c2oc3ncnc(NC[C@@H]4CCCO4)c3c2-c2ccccc2)cc1` [Example 1b], for which the “Castration and radioresistant prostate xenograft tumor growth” value in data set [5] was “inhibits”.
